Where two headings read alike, the source gives them in different places.
Tests used:
MiaPaCa-2 cells = assay: Cytotoxicity assay in MiaPaCa-2 (XTT, 72 h); assay type: cell-based; conditions: for inhibition at 1 µM / inhibition at 10 µM / Cell cytotoxicity assay (% Inhibition at 1 μM) / Cell cytotoxicity assay (% Inhibition at 10 μM): DMSO control = 0% inhibition; for inhibition at 1 µM: read-out: Cell cytotoxicity assay (% Inhibition at 1 μM); for inhibition at 10 µM: read-out: Cell cytotoxicity assay (% Inhibition at 10 μM); for IC50: XTT, read-out: Cell cytotoxicity assay IC50 in range
Method: MiaPaCa-2 Cells (ATCC) were seeded in 96 well plates (Costar clear flat bottom) at a density of 3000 cells/well and allowed to settle overnight. Test compounds were dissolved in dimethyl sulphoxide (DMSO-Sigma Aldrich, D2650) and incubated with MiaPaCa-2 cells for 72 h. Post 72 h, 50 μl XTT (1 mg/mL; Invitrogen, X 6493) and PMS ([…]; Sigma Aldrich, P9625) reagents were added to the cells in 100 μl of cDMEM (Sigma Aldrich-D5648)+10% FBS (Hyclone-5430088-03)+1×Pen Strep (Sigma Aldrich-P0781). After 1 hour incubation with XTT and PMS absorbance was monitored with Spectramax M3 (Molecular Device). Percentage inhibition of proliferation at 10 μM and 1 μM concentrations was calculated by considering DMSO control as 0% inhibition. IC50 values were plotted using Graph pad prism software (Graph pad Inc, La Jola, Calif., USA).

[1] = target: T1, recombinant NAMPT wild type protein (Homo sapiens, UniProt P43490); assay: NAMPT fluorescence assay; assay type: biochemical; conditions: 50 ng NAMPT, 2 μM Nam, 10 point dose response; read-out: Fluorescence assay IC50 in range
T1 construct: made in house; host or cells: E. coli
Method: The enzymatic assay was standardized using in-house recombinant NAMPT wild type protein from E. coli expression & NAM (Cat #47865-U) as a substrate. The product NMN formed after enzymatic reaction was derivatized to a fluorescent derivative through sequentially reacting with acetophenone/KOH and formic acid. The derivatized fluorescent NMN derivative was detected at 382 nm excitation wavelength and a 445 nm emission wavelength. […] The fluorescence was measured (Excitation at 382 nm & Emission at 445 nm) using Victor^3 V fluorimeter. The data is calculated using the RFU values. The final concentration of DMSO was 2% in the assay. Each individual IC50 was determined using 10 point dose response curve generated by GraphPad Prism software Version 4 (San Diego, Calif., USA) using nonlinear regression curve fit for sigmoidal dose response (variable slope).

T1 sequence (P43490 whole entry): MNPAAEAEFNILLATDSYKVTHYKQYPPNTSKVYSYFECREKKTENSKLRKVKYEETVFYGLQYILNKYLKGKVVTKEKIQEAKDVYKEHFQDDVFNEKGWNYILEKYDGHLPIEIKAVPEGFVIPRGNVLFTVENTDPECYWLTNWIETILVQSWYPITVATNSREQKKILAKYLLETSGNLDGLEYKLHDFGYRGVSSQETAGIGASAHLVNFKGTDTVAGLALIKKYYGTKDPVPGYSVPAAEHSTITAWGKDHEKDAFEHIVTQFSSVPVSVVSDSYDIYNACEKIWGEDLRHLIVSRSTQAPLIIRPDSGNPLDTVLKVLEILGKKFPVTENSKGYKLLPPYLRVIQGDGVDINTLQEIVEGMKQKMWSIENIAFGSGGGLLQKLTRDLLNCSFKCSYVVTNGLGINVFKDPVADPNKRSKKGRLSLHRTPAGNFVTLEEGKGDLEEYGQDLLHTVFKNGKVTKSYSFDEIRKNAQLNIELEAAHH

| SMILES | IC50 [1] | inhibition at 1 µM (MiaPaCa-2 cells; Homo sapiens, MIA PaCa-2, 72 h) | inhibition at 10 µM (MiaPaCa-2 cells; Homo sapiens, MIA PaCa-2, 72 h) | IC50 (MiaPaCa-2 cells; Homo sapiens, MIA PaCa-2, 72 h) | Cell cytotoxicity assay (% Inhibition at 1 μM) (MiaPaCa-2 cells) | IC50 (MiaPaCa-2 cells) | Cell cytotoxicity assay (% Inhibition at 10 μM) (MiaPaCa-2 cells) |
| --- | --- | --- | --- | --- | --- | --- | --- |
| O=C(NCC1=NOC(COc2cc(Cl)cnc2-c2ccc(F)nc2)C1)c1ccc2nccn2c1 (racemic) [Example 14, N-((5-(((5-chloro-6′-fluoro-[2,3′-bipyridin]-3-yl)oxy)methyl)-4,5-dihydro-isoxazol-3-yl)methyl)imidazo[1,2-a]pyridine-6-carboxamide] | 10 to 25 nM | 95% | 95% | < 50 nM |  |  |  |
| Cc1cc(NC(=O)NCC2=NOC(COc3cccnc3-c3ccc(F)nc3)C2)ccn1 (racemic) [Example 16, 1-((5-(((6′-fluoro-[2,3′-bipyridin]-3-yl)oxy)methyl)-4,5-dihydroisoxazol-3-yl)methyl)-3-(2-methylpyridin-4-yl)urea] | < 10 nM | 89% | 89% | 50 to 250 nM |  |  |  |
| O=C(NCC1=NOC(COc2cccnc2-c2ccc(F)nc2)C1)Nc1ccncc1 (racemic) [Example 17, 1-((5-(((6′-fluoro-[2,3′-bipyridin]-3-yl)oxy)methyl)-4,5-dihydroisoxazol-3-yl)methyl)-3-(pyridin-4-yl)urea] | < 10 nM | 90% | 89% | < 50 nM |  |  |  |
| O=C(NCC1=NOC(COc2cccnc2-c2ccc(F)nc2)C1)Nc1ccnnc1 (racemic) [Example 18, 1-((5-(((6′-fluoro-[2,3′-bipyridin]-3-yl)oxy)methyl)-4,5-dihydroisoxazol-3-yl)methyl)-3-(pyridazin-4-yl)urea] | > 25 nM | 90% | 89% | 50 to 250 nM |  |  |  |
| Cc1cc(NC(=O)NCC2=NOC(COc3cccnc3-c3cnn(C)c3)C2)ccn1 (racemic) [Example 19, 1-((5-(((2-(1-methyl-1H-pyrazol-4-yl)pyridin-3-yl)oxy)methyl)-4,5-dihydroisoxazol-3-yl)methyl)-3-(2-methylpyridin-4-yl)urea] | 10 to 25 nM | 17% | 82% | > 250 nM |  |  |  |
| O=C(NCC1=NOC(COc2cccnc2-c2ccc(F)nc2)C1)c1ccc2nccn2c1 (single isomer, unassigned) [Example 4a, N-((5-(((6′-fluoro-[2,3′-bipyridin]-3-yl)oxy)methyl)-4,5-dihydroisoxazol-3-yl)methyl)imidazo[1,2-a]pyridine-6-carboxamide] | < 10 nM |  | 83% |  | 8% | > 250 nM |  |
| O=C(NCC1=NOC(COc2cccnc2-c2ccc(F)nc2)C1)c1ccc2nccn2c1 (single isomer, unassigned) [Example 4b, N-((5-(((6′-fluoro-[2,3′-bipyridin]-3-yl)oxy)methyl)-4,5-dihydroisoxazol-3-yl)methyl)imidazo[1,2-a]pyridine-6-carboxamide] | < 10 nM |  |  |  | 95% | < 50 nM | 94% |
| O=C(NCC1=NOC(COc2cccnc2-c2cccnc2)C1)c1ccc2nccn2c1 (single isomer, unassigned) [Example 7a, N-((5-(([2,3′-bipyridin]-3-yloxy)methyl)-4,5-dihydroisoxazol-3-yl)methyl)-imidazo[1,2-a]pyridine-6-carboxamide] | < 10 nM |  |  |  |  | < 50 nM |  |
| O=C(NCC1=NOC(COc2cccnc2-c2ccc(Cl)nc2)C1)c1ccc2nccn2c1 (single isomer, unassigned) [Example 8b, N-((5-(((6′-chloro-[2,3′-bipyridin]-3-yl)oxy)methyl)-4,5-dihydroisoxazol-3-yl)methyl)imidazo[1,2-a]pyridine-6-carboxamide] | > 25 nM |  |  |  | 92% | 50 to 250 nM | 94% |

Further lines, with some results ahead:

| IC50 [1] | SMILES | inhibition at 1 µM (MiaPaCa-2 cells; Homo sapiens, MIA PaCa-2, 72 h) | inhibition at 10 µM (MiaPaCa-2 cells; Homo sapiens, MIA PaCa-2, 72 h) | IC50 (MiaPaCa-2 cells; Homo sapiens, MIA PaCa-2, 72 h) | Cell cytotoxicity assay (% Inhibition at 1 μM) (MiaPaCa-2 cells) | IC50 (MiaPaCa-2 cells) | Cell cytotoxicity assay (% Inhibition at 10 μM) (MiaPaCa-2 cells) |
| --- | --- | --- | --- | --- | --- | --- | --- |
| < 10 nM | O=C(NCC1=NOC(COc2cc(F)cnc2-c2ccc(F)nc2)C1)c1ccc2nccn2c1 (single isomer, unassigned) [Example 9a, N-((5-(((5,6′-difluoro-[2,3′-bipyridin]-3-yl)oxy)methyl)-4,5-dihydroisoxazol-3-yl)methyl)imidazo[1,2-a]pyridine-6-carboxamide] |  | 90% |  | 12% | > 250 nM |  |
| 10 to 25 nM | O=C(NCC1=NOC(COc2cc(F)cnc2-c2ccc(F)nc2)C1)c1ccc2nccn2c1 (single isomer, unassigned) [Example 9b, N-((5-(((5,6′-difluoro-[2,3′-bipyridin]-3-yl)oxy)methyl)-4,5-dihydroisoxazol-3-yl)methyl)imidazo[1,2-a]pyridine-6-carboxamide] |  |  |  | 95% | < 50 nM | 95% |
| 10 to 25 nM | Cc1cnc(-c2ccc(F)nc2)c(OCC2CC(CNC(=O)c3ccc4nccn4c3)=NO2)c1 (single isomer, unassigned) [Example 11a, N-((5-(((6′-fluoro-5-methyl-[2,3′-bipyridin]-3-yl)oxy)methyl)-4,5-dihydroisoxazol-3-yl)methyl)imidazo[1,2-a]pyridine-6-carboxamide] | 88% | 100% |  |  | > 250 nM |  |
| 10 to 25 nM | Cc1cnc(-c2ccc(F)nc2)c(OCC2CC(CNC(=O)c3ccc4nccn4c3)=NO2)c1 (single isomer, unassigned) [Example 11b, N-((5-(((6′-fluoro-5-methyl-[2,3′-bipyridin]-3-yl)oxy)methyl)-4,5-dihydroisoxazol-3-yl)methyl)imidazo[1,2-a]pyridine-6-carboxamide] |  |  |  | 100% | < 50 nM | 98% |
| 10 to 25 nM | Cc1ccc(OCC2CC(CNC(=O)c3ccc4nccn4c3)=NO2)c(-c2ccc(F)nc2)n1 (single isomer, unassigned) [Example 12a, N-((5-(((6′-fluoro-6-methyl-[2,3′-bipyridin]-3-yl)oxy)methyl)-4,5-dihydroisoxazol-3-yl)methyl)imidazo[1,2-a]pyridine-6-carboxamide] |  | 96% |  | 45% | > 250 nM |  |
| 10 to 25 nM | Cc1ccc(OCC2CC(CNC(=O)c3ccc4nccn4c3)=NO2)c(-c2ccc(F)nc2)n1 (single isomer, unassigned) [Example 12b, N-((5-(((6′-fluoro-6-methyl-[2,3′-bipyridin]-3-yl)oxy)methyl)-4,5-dihydroisoxazol-3-yl)methyl)imidazo[1,2-a]pyridine-6-carboxamide] |  |  |  | 100% | < 50 nM | 100% |
| > 25 nM | O=C(NCC1=NOC(COc2cc(Cl)cnc2-c2cccnc2)C1)c1ccc2nccn2c1 (single isomer, unassigned) [Example 13a, N-((5-(((5-chloro-[2,3′-bipyridin]-3-yl)oxy)methyl)-4,5-dihydroisoxazol-3-yl)methyl)imidazo[1,2-a]pyridine-6-carboxamide] |  | 93% |  | 20% | > 250 nM |  |
| 10 to 25 nM | O=C(NCC1=NOC(COc2cc(Cl)cnc2-c2cccnc2)C1)c1ccc2nccn2c1 (single isomer, unassigned) [Example 13b, N-((5-(((5-chloro-[2,3′-bipyridin]-3-yl)oxy)methyl)-4,5-dihydroisoxazol-3-yl)methyl)imidazo[1,2-a]pyridine-6-carboxamide] |  |  |  | 100% | < 50 nM | 100% |

Reference: patent US20170204092A1, “4,5-DIHYDROISOXAZOLE DERIVATIVES AS NAMPT INHIBITORS” (AURIGENE DISCOVERY TECHNOLOGIES LIMITED, priority 2014, published 2017)
